Data set [1] can be described thus: Odour reduction by lipid-treated fluff pulp, headspace SPME-GC/MS. Particulars: pulp with 30% by weight lipid; 1000 ng/ml odour substance; 3 h + 0.5 h at 35° C.; vs untreated pulp. Here is the method: Sheets of sulfate pulp from Weyerhaeuser Inc., with the designation NB416, were impregnated with a solution of the tested oil/fat in hexane. To a pulp sheet weighing 10 g was added a solution of 4.29 g oil in 4.29 g hexane. The solution was evenly distributed over the surface of the sheets. When the hexane had evaporated the sheets contained 30% by weight oil/fat and 70% by weight pulp fibers. The treated sheets were defibrated in a Braun multimixer MX32 to produce fluff pulp.
1 g of treated pulp was put in a 60 ml vial, after which 3.9 ml of 0.01 M phosphate buffered saline solution pH 7.4 from Sigma was added. Then 0.1 ml PEG300 with DMS (dimethyl sulfide), DMDS (dimethyl disulfide) and IVA (isovaleric aldehyde) was added so that the concentration of each odour substance in the final solution was 1000 ng/ml.
After 3 h at 35° C. a SPME fiber (Supelco), 75 μm Carboxen-PDMS, was injected into the headspace above the pulp and after an additional 0.5 h the SPME fiber was analyzed with gas chromatography (GC), Thermo Finnigan Trace, with a MS detector. The peak area of each odour substance was determined for samples with treated pulp and the untreated reference pulp. The GC settings were:
Temperature program for GC: 30° C. (7 min), 3° C./min-70° C. (0 min), 40° C./min-250° C. (7 min). Column: ZB-624 (Zebron), 30 m, 0.25 mm i.d. 1.40 μm film thickness Inlet temperature: 250° C. Transfer line: 220° C.
MS: SIM (single ion monitoring). When DMS, IVA and DMDS were analyzed the following mass numbers were detected: 45, 46, 47, 57, 58, 61, 62, 79, 86 and 94.
The odour reduction was determined by comparing the peak area of the tested sample with the same peak area achieved when testing the untreated reference pulp. The calculation of the odour reduction in percent was made by the equation:
Odour reduction=100×(1−Actual peak area/Peak area of sample with untreated pulp)
These ozonized lipids were tested for their odour reducing effect on treated pulp in the same manner as under Trial 1 above. The only exception in the laboratory procedure was the method for treatment of the pulp with Acolectin.

For data set [2] the following is noted: autoxidation at 100° C., fatty acids not treated with antioxidants; cited from earlier work.
Data set [3] can be described thus: Peroxide value, AOCS Official Method Cd 8-53. The data set is classed as physicochemical. Particulars: Trial 2 lipids after ozonization; lipids used for treatment of wipes. Here is the method:
The degree of oxidation was tested by determining the peroxide value according to the test method AOCS Official Method Cd 8-53 Surplus 2003. The peroxide value for both the starting oils/fats and the ozonized oils/fats was determined.

Data set [4] can be described thus: Odour reduction by lipid-treated spunlaced nonwoven wipes, headspace SPME-GC/MS. Particulars: 1 g spunlaced nonwoven treated with 2 g lipid; 1000 ng/ml odour compound. How it is done:
A spunlaced nonwoven with the trade name Fibrella 7160, available from Suominen (Finland) was used in these experiments. This material, which consists of about 60% polypropylene fibres and 40% rayon fibres, has a basis weight of about 50 g/m^2. Pieces with a weight of 1 g and an area of 0.020 m^2 were cut from the spunlaced nonwoven sheet. These pieces were then treated with lipids. 2 g of the lipid was dissolved in 4 g of either hexane or acetone and evenly distributed on the piece of nonwoven. Acetone was used to dissolve all ozonated oils and oleic acid while the other not ozonated oils where dissolved in hexane. After several hours, when the solvent had evaporated, the nonwoven pieces were folded and inserted into 60 ml vials, used for SPME analysis. The vials were then flushed with nitrogen gas and sealed.
Vials with a volume of 60 ml containing 1 g spunlaced nonwoven treated with 2 g lipid were used in these tests. The laboratory procedure was the same as earlier described when evaluating the odour reduction of fluffed pulp, see page 10-11. To each vial was added 3.9 ml phosphate buffered saline solution, pH 7.4 and 0.1 ml PEG300 with DMS, DMDS and IVA. The total concentration of each odour compound was 1000 ng/ml.

Take `CCCCC/C=C\C/C=C\CCCCCCCC(=O)OCC` [Ethyl linoleate, ethyl linoleate]: in data set [1], the “Reduction of odour substances in %, DMDS” value is reported as 0%; the “Reduction of odour substances in %, DMS” value turned out to be 0%; the “Reduction of odour substances in %, IVA” value was 0%.
As for `CCCCCCCCCCCCCCCCCC(=O)O` [Stearic acid], in data set [2], the “Relative rate of oxidation” value was 0.6.
With `CCCCCCCC/C=C\CCCCCCCC(=O)O` [Oleic acid, oleic acid], in data set [1], the “Reduction of odour substances in %, DMDS” value is 19.2%; the “Reduction of odour substances in %, DMS” value stood at 67.5%; the “Reduction of odour substances in %, IVA” value is given as 9.3%. In data set [3], this molecule displayed a Peroxide value of 3.1 meqv./kg. Also, the “Relative rate of oxidation” value in data set [2] is listed as 6. Also, in data set [4], the “Reduction of odour substances in %, DMDS” value amounted to 83.6%; the “Reduction of odour substances in %, DMS” value is on record as 67.4%; the “Reduction of odour substances in %, IVA” value was determined as 74.5%.
For the molecule `CCCCC/C=C\C/C=C\CCCCCCCC(=O)O` [Linoleic acid], the “Relative rate of oxidation” value in data set [2] was 64.

The values above are taken from patent publication US20110150959A1, “WIPE WITH ODOUR CONTROL SUBSTANCE” (SCA Hygiene Products AB, priority 2008, published 2011).
